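Each compound was tested at five concentrations against cells in 96-well plates for 48 hours. GI50 marks 50% less growth.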 The source made the active and inactive calls. Rule as the data show it: active = GI50 up to about 1.1 µM and inactive = higher.
How the values were obtained:
Assay in all cases: DTP human tumour cell line panel, 48 h
LXFL 529 = tested on: LXFL 529
HOP-62 = tested on: HOP-62
SR = tested on: SR
HT-29 = tested on: HT-29
SN12C = tested on: SN12C
MOLT-4 = tested on: MOLT-4
HL-60 = tested on: HL-60
HOP-18 = tested on: HOP-18
OVCAR-3 = tested on: OVCAR-3
A549 = tested on: A549
KM12 = tested on: KM12
ACHN = tested on: ACHN
RXF 631 = tested on: RXF 631
K562 = tested on: K562
SF-295 = tested on: SF-295
OVCAR-4 = tested on: OVCAR-4
OVCAR-5 = tested on: OVCAR-5
RXF 393 = tested on: RXF 393
NCI-H23 = tested on: NCI-H23
SF-268 = tested on: SF-268
DMS-273 = tested on: DMS-273
EKVX = tested on: EKVX
SF-539 = tested on: SF-539
UO-31 = tested on: UO-31
UACC-62 = tested on: UACC-62
UACC-257 = tested on: UACC-257
HCT-116 = tested on: HCT-116
A498 = tested on: A498
XF498 = tested on: XF498
TK-10 = tested on: TK-10
U-251 = tested on: U-251
Malme-3M = tested on: Malme-3M
NCI-H522 = tested on: NCI-H522
SK-MEL-28 = tested on: SK-MEL-28
DLD-1 = tested on: DLD-1
NCI-H460 = tested on: NCI-H460
NCI-H226 = tested on: NCI-H226
M19-MEL = tested on: M19-MEL
OVCAR-8 = tested on: OVCAR-8
SK-OV-3 = tested on: SK-OV-3
SK-MEL-2 = tested on: SK-MEL-2
HOP-92 = tested on: HOP-92
IGROV-1 = tested on: IGROV-1
SNB-78 = tested on: SNB-78
SW-620 = tested on: SW-620
COLO 205 = tested on: COLO 205
HCT-15 = tested on: HCT-15
RPMI-8226 = tested on: RPMI-8226
SNB-75 = tested on: SNB-75
M14 = tested on: M14
KM-20L2 = tested on: KM-20L2
CAKI-1 = tested on: CAKI-1
CCRF-CEM = tested on: CCRF-CEM
786-0 = tested on: 786-0
SK-MEL-5 = tested on: SK-MEL-5
SNB-19 = tested on: SNB-19
LOX IMVI = tested on: LOX IMVI
HCC 2998 = tested on: HCC 2998
DMS-114 = tested on: DMS-114
MDA-MB-231 = tested on: MDA-MB-231
NCI/ADR-RES = tested on: NCI/ADR-RES
BT-549 = tested on: BT-549
MCF7 = tested on: MCF7
MDA-MB-435 = tested on: MDA-MB-435
T47D = tested on: T47D
PC-3 = tested on: PC-3
DU-145 = tested on: DU-145
MDA-N = tested on: MDA-N

## CC(=O)OC1C(=O)C(O)C(C)OC1O[C@@H]1C[C@@]2(C)[C@@H]3CC=C4[C@@H](C[C@H](O)C(=O)C4(C)C)[C@]3(C)C(=O)C[C@]2(C)[C@H]1[C@@](C)(O)C(=O)/C=C/C(C)(C)O (stereo not given in full)
LXFL 529
  GI50: 0.881 µM (active)
HOP-62
  GI50: 2.96 µM (inactive)
SR
  GI50: 1.52 µM (inactive)
HT-29
  GI50: 1.35 µM (inactive)
SN12C
  GI50: 2.61 µM (inactive)
MOLT-4
  GI50: 3.51 µM (inactive)
HL-60
  GI50: 1.91 µM (inactive)
HOP-18
  GI50: 1.22 µM (inactive)
OVCAR-3
  GI50: 1.7 µM (inactive)
A549
  GI50: 2.64 µM (inactive)
KM12
  GI50: > 7.53 µM (inactive)
ACHN
  GI50: 2.74 µM (inactive)
RXF 631
  GI50: 2.39 µM (inactive)
K562
  GI50: 3.35 µM (inactive)
SF-295
  GI50: 3.03 µM (inactive)
OVCAR-4
  GI50: 1.02 µM (active)
OVCAR-5
  GI50: 7.29 µM (inactive)
RXF 393
  GI50: 0.845 µM (active)
NCI-H23
  GI50: 6 µM (inactive)
SF-268
  GI50: 0.843 µM (active)
DMS-273
  GI50: 0.658 µM (active)
EKVX
  GI50: 3.86 µM (inactive)
SF-539
  GI50: 0.675 µM (active)
UO-31
  GI50: 3.18 µM (inactive)
UACC-62
  GI50: 3.15 µM (inactive)
UACC-257
  GI50: 0.91 µM (active)
HCT-116
  GI50: 2.2 µM (inactive)
A498
  GI50: 0.577 µM (active)
XF498
  GI50: 0.297 µM (active)
TK-10
  GI50: 1.85 µM (inactive)
U-251
  GI50: 1.16 µM (inactive)
Malme-3M
  GI50: 1.04 µM (active)
NCI-H522
  GI50: 0.975 µM (active)
SK-MEL-28
  GI50: 0.447 µM (active)
DLD-1
  GI50: 1.3 µM (inactive)
NCI-H460
  GI50: 1.98 µM (inactive)
NCI-H226
  GI50: 0.693 µM (active)
M19-MEL
  GI50: 2.44 µM (inactive)
OVCAR-8
  GI50: 6.28 µM (inactive)
SK-OV-3
  GI50: 3.06 µM (inactive)
SK-MEL-2
  GI50: 0.748 µM (active)
HOP-92
  GI50: 1.28 µM (inactive)
IGROV-1
  GI50: 2.6 µM (inactive)
SNB-78
  GI50: 0.916 µM (active)
SW-620
  GI50: 1.12 µM (inactive)
COLO 205
  GI50: 0.885 µM (active)
HCT-15
  GI50: 1.08 µM
RPMI-8226
  GI50: 0.44 µM (active)
SNB-75
  GI50: 0.71 µM (active)
M14
  GI50: 0.918 µM (active)
KM-20L2
  GI50: 1.39 µM (inactive)
CAKI-1
  GI50: 1.36 µM (inactive)
CCRF-CEM
  GI50: 0.662 µM (active)
786-0
  GI50: 1.53 µM (inactive)
SK-MEL-5
  GI50: 1.47 µM (inactive)
SNB-19
  GI50: 1.62 µM (inactive)
LOX IMVI
  GI50: 0.706 µM (active)
HCC 2998
  GI50: 2.27 µM (inactive)

## COc1c(Cl)cc(NC(=S)C#N)cc1Cl
LXFL 529
  GI50: 22.2 µM (inactive)
HOP-62
  GI50: 24.5 µM (inactive)
DMS-114
  GI50: 15.6 µM (inactive)
SR
  GI50: 23.8 µM (inactive)
HT-29
  GI50: 22.8 µM (inactive)
SN12C
  GI50: 20.1 µM (inactive)
MDA-MB-231
  GI50: 17 µM (inactive)
MOLT-4
  GI50: 32.9 µM (inactive)
HL-60
  GI50: > 100 µM (inactive)
HOP-18
  GI50: 8.53 µM (inactive)
OVCAR-3
  GI50: 20.8 µM (inactive)
A549
  GI50: 23.4 µM (inactive)
KM12
  GI50: 30.4 µM (inactive)
ACHN
  GI50: 25.6 µM (inactive)
RXF 631
  GI50: 19.7 µM (inactive)
K562
  GI50: > 52.2 µM (inactive)
SF-295
  GI50: 29.5 µM (inactive)
OVCAR-4
  GI50: 29.2 µM (inactive)
OVCAR-5
  GI50: 37.1 µM (inactive)
NCI/ADR-RES
  GI50: 22.1 µM (inactive)
RXF 393
  GI50: 27.3 µM (inactive)
NCI-H23
  GI50: 19.3 µM (inactive)
BT-549
  GI50: 16.6 µM (inactive)
SF-268
  GI50: 31.2 µM (inactive)
DMS-273
  GI50: 30.3 µM (inactive)
EKVX
  GI50: 22.2 µM (inactive)
SF-539
  GI50: 23.8 µM (inactive)
MCF7
  GI50: 24.4 µM (inactive)
UO-31
  GI50: 22.3 µM (inactive)
UACC-62
  GI50: 15.1 µM (inactive)
MDA-MB-435
  GI50: 25 µM (inactive)
UACC-257
  GI50: 19.9 µM (inactive)
HCT-116
  GI50: 16.4 µM (inactive)
A498
  GI50: 19.1 µM (inactive)
T47D
  GI50: 12.6 µM (inactive)
TK-10
  GI50: 33.8 µM (inactive)
U-251
  GI50: 17.7 µM (inactive)
Malme-3M
  GI50: 20.6 µM (inactive)
NCI-H522
  GI50: 19.4 µM (inactive)
SK-MEL-28
  GI50: 26.7 µM (inactive)
DLD-1
  GI50: 31.7 µM (inactive)
NCI-H460
  GI50: 23.9 µM (inactive)
NCI-H226
  GI50: 22.5 µM (inactive)
M19-MEL
  GI50: 19.5 µM (inactive)
OVCAR-8
  GI50: 28.4 µM (inactive)
SK-OV-3
  GI50: 29.7 µM (inactive)
PC-3
  GI50: 24.3 µM (inactive)
SK-MEL-2
  GI50: 23.4 µM (inactive)
HOP-92
  GI50: 22.6 µM (inactive)
IGROV-1
  GI50: 27.1 µM (inactive)
SNB-78
  GI50: 26.7 µM (inactive)
SW-620
  GI50: 31.3 µM (inactive)
COLO 205
  GI50: 17.8 µM (inactive)
HCT-15
  GI50: 18.4 µM
RPMI-8226
  GI50: 22.8 µM (inactive)
SNB-75
  GI50: 22.5 µM (inactive)
M14
  GI50: 24.5 µM (inactive)
KM-20L2
  GI50: 20.1 µM (inactive)
CAKI-1
  GI50: 22.7 µM (inactive)
CCRF-CEM
  GI50: > 53.8 µM (inactive)
DU-145
  GI50: 35.6 µM (inactive)
786-0
  GI50: 28.3 µM (inactive)
SK-MEL-5
  GI50: 15.8 µM (inactive)
MDA-N
  GI50: 25.5 µM (inactive)
SNB-19
  GI50: 32.9 µM (inactive)
LOX IMVI
  GI50: 20 µM (inactive)
HCC 2998
  GI50: 15.9 µM (inactive)

Reference: ChEMBL document CHEMBL1201862, “PubChem BioAssay data set” (2004)
